This note sets out measurements from ChEMBL document CHEMBL4049437, “Benzoisoquinolinediones as Potent and Selective Inhibitors of BRPF2 and TAF1/TAF1L Bromodomains” (J Med Chem, 2017).

Converted amounts (≈) assume the structure as drawn.

Data set [1] deals with T1, Bromodomain-containing protein 4 (Homo sapiens, UniProt O60885).
Data set [2] deals with T1, Bromodomain-containing protein 4. The experiment in a line: Inhibition of BRD4 BD2 (unknown origin) preincubated for 15 mins followed by addition of C-terminal biotinylated synthetic K5,8,12,16 tetra-acetylated histone H4 (1 to 20 residues) peptide as substrate measured after 1 hr by TR-FRET assay.
In data set [3] the target is T2, Bromodomain-containing protein 1 (Homo sapiens, UniProt O95696).
T2 sequence (O95696 whole entry): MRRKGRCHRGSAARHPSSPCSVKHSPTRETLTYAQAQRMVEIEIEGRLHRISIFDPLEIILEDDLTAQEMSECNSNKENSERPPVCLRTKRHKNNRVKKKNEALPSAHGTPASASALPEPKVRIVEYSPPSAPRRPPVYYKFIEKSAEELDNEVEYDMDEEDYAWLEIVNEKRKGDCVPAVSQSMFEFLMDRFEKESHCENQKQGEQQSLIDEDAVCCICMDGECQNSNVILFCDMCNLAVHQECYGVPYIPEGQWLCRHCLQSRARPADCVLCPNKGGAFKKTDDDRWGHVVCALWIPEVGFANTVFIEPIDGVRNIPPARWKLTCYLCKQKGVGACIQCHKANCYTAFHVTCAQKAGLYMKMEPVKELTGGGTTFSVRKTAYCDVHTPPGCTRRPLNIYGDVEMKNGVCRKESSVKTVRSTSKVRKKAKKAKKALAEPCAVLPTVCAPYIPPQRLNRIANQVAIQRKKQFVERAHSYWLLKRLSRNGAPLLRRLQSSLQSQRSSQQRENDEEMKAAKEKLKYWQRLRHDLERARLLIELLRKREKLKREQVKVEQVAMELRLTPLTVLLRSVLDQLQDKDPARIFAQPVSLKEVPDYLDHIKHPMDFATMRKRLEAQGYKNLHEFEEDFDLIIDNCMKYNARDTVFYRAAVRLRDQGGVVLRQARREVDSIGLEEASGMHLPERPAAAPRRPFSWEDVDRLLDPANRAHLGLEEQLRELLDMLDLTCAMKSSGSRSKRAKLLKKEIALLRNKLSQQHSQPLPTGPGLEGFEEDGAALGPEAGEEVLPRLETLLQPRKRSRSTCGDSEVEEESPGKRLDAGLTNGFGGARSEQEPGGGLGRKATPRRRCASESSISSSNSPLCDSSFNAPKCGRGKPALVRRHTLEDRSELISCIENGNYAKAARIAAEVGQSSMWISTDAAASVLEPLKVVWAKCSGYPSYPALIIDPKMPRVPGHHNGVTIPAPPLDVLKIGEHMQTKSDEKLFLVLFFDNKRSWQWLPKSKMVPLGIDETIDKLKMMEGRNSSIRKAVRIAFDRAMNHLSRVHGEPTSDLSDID
The experiment in a line: Inhibition of human BRPF2 (563 to 688 residues) expressed in Escherichia coli BL21 (DE3)-R3-pRARE2 preincubated for 15 mins followed by addition of C-terminal biotinylated synthetic K5,12 diacetylated histone H4 (1 to 20 residues) peptide as substrate measured after 1 hr by TR-FRET assay. For orientation: Time-resolved FRET reads energy transfer from a long-lived donor to a nearby acceptor.

A further data set addresses T3, Peregrin (Homo sapiens, UniProt P55201).
T3 sequence (P55201 whole entry): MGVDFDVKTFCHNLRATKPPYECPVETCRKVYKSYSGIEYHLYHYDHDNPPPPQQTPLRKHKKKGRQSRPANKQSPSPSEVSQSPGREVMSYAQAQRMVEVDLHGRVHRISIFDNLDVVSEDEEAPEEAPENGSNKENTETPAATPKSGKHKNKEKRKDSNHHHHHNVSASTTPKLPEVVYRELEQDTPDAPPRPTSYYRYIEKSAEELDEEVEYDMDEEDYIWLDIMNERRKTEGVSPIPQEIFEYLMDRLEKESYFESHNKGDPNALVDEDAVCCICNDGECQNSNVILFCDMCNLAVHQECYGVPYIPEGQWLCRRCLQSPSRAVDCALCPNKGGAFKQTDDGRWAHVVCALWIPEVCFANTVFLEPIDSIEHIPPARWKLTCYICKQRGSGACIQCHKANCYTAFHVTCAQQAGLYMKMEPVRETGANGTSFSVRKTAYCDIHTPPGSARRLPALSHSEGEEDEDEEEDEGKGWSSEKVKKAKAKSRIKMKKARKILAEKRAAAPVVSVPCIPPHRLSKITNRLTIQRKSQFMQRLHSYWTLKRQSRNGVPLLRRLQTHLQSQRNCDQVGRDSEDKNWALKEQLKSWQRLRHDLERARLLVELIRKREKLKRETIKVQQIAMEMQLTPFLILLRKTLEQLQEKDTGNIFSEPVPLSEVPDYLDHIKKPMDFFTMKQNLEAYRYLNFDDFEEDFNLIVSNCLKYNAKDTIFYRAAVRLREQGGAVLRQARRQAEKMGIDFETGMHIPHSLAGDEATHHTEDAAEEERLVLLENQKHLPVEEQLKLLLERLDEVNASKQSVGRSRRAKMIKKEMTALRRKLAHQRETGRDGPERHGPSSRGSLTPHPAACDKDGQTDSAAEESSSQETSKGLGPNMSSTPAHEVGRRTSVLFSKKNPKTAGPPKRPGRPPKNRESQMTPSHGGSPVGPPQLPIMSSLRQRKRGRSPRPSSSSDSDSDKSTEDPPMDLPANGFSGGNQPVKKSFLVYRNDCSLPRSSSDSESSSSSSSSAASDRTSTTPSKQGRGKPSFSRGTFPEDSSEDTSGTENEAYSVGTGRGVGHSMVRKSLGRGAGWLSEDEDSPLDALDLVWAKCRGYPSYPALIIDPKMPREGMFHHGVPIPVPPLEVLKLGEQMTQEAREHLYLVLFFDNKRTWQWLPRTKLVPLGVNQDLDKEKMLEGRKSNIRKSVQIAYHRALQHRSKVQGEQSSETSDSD
The data set is described as follows: Inhibition of His-tagged BRPF1 (626 to 740 residues) (unknown origin) preincubated for 15 mins followed by addition of C-terminal biotinylated synthetic K5,12 diacetylated histone H4 (1 to 20 residues) peptide as substrate measured after 1 hr by TR-FRET assay.

Data set [4] concerns the target Transcription initiation factor TFIID subunit 1 (Homo sapiens, UniProt P21675). The data set is described as follows: Inhibition of human GST-tagged TAF1 BD2 (1519 to 1651 residues) expressed in Escherichia coli BL21 (DE3)-R3-pRARE2 preincubated for 15 mins followed by addition of C-terminal biotinylated synthetic K5,8,12,16 tetra-acetylated histone H4 (1 to 20 residues) peptide as substrate measured after 1 hr by TR-FRET assay.

Data set [5] in a line: Aqueous solubility of the compound in DMSO at pH 6.5 after 24 hrs by HPLC-MS/MS analysis. The following applies: pH 6.5, 24 h. It is filed as physicochemical.
The target of data set [6] is T2, Bromodomain-containing protein 1.

Sequence of Transcription initiation factor TFIID subunit 1 (P21675 whole entry, the tested form may be a part): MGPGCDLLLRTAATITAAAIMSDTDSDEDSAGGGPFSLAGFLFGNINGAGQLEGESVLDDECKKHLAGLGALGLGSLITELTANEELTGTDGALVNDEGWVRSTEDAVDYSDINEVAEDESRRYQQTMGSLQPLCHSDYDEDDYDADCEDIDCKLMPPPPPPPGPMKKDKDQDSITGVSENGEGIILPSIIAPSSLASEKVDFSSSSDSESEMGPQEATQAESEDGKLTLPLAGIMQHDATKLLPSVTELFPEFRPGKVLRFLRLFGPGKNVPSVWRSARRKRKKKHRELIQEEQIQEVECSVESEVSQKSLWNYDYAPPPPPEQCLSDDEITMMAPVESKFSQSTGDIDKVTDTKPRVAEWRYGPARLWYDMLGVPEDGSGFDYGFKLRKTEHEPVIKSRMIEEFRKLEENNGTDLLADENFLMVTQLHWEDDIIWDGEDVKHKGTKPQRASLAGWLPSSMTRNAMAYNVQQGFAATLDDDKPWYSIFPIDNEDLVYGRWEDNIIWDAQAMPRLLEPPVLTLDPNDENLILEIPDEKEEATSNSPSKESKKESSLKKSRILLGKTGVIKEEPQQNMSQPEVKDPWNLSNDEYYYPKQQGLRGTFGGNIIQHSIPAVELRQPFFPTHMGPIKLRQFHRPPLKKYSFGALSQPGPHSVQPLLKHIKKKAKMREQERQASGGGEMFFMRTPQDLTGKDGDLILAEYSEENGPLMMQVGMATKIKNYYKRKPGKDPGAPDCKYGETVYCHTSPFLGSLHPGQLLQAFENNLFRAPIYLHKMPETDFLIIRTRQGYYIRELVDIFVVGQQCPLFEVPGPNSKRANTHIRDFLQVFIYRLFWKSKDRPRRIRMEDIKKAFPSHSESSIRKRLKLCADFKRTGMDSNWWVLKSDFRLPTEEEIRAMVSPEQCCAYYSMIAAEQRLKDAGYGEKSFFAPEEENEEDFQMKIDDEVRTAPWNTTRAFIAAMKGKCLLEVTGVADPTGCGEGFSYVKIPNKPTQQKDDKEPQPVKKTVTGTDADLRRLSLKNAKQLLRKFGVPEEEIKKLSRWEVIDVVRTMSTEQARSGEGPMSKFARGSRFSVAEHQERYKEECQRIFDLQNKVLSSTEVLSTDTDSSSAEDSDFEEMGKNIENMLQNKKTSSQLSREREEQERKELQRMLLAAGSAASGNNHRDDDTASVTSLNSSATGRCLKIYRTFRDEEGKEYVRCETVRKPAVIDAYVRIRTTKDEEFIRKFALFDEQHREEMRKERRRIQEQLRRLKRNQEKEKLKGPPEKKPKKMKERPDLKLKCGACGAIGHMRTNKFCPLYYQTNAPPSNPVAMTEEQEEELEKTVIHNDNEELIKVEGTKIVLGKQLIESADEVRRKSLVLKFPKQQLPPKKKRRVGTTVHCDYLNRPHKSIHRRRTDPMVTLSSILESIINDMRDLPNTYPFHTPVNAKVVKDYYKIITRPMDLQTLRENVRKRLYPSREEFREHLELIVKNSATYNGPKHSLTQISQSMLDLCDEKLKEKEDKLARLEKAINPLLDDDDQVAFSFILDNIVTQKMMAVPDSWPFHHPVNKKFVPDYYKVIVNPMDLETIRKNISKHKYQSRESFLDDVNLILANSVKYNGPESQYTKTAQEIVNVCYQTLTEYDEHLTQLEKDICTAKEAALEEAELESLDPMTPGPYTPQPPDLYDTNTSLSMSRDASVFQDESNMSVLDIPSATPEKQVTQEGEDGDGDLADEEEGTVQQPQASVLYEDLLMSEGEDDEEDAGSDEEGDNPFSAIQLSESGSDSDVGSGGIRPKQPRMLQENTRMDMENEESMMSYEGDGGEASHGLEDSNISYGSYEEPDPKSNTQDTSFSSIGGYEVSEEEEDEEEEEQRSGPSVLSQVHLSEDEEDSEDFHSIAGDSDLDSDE

With `Cc1cc2c(cc1N1C(=O)c3cccc4cc(Br)cc(c34)C1=O)n(C)c(=O)n2C`, the IC50 (as a rule, the concentration at which inhibition is half-maximal) in data set [1] is greater than 17000 nM; in data set [2], greater than 20000 nM; in data set [3] it was 124 nM; at Peregrin it was 1900 nM; in data set [4], 17 nM.

`CN(C)c1cc2c(cc1N1C(=O)c3cccc4cccc(c34)C1=O)n(C)c(=O)n2C`: the 50% inhibitory concentration (IC50) was greater than 20000 nM in data set [1]; greater than 20000 nM in data set [2]; 100 nM in data set [3]; 630 nM at Peregrin; 55 nM in data set [4].

For `Cc1cc2c(cc1N1C(=O)c3cccc4cc([N+](=O)[O-])cc(c34)C1=O)n(C)c(=O)n2C`, the concentration for half-maximal inhibition (IC50) in data set [1] is greater than 20000 nM; in data set [2] it was greater than 20000 nM; in data set [3] it was 82 nM; against Peregrin it was 185 nM; in data set [4], 58 nM.

`Cc1cc2c(cc1N1C(=O)c3cccc4c(N5CCCC5)ccc(c34)C1=O)n(C)c(=O)n2C`: the IC50 in data set [1] is 15500 nM; in data set [2], greater than 15000 nM; in data set [3], 126 nM; against Peregrin it was 4540 nM; in data set [6], greater than 10000 nM. In data set [5], the solubility (commonly how much of the substance goes into solution per volume) turned out to be 0.1 µg/mL (≈ 0.227 µM).

`Cn1c(=O)n(C)c2cc(N3C(=O)c4cccc5cccc(c45)C3=O)c(Br)cc21`: the IC50 in data set [1] was greater than 20000 nM; in data set [2] it was greater than 20000 nM; in data set [3] it was 153 nM; at Peregrin it was 855 nM; in data set [4] it was 87 nM.

For the compound `Cc1cc2c(cc1N1C(=O)c3cccc4cc(O)cc(c34)C1=O)n(C)c(=O)n2C`, the IC50 in data set [1] is greater than 14200 nM; in data set [2], greater than 20000 nM; in data set [3], 102 nM; at Peregrin, 3690 nM; in data set [4], 13 nM.

For the compound `Cc1cc2c(cc1N1C(=O)c3cccc4c(N5CCN(CC6CC6)CC5)ccc(c34)C1=O)n(C)c(=O)n2C`, the half-inhibitory concentration (IC50) is greater than 9600 nM in data set [1]; 80 nM in data set [3]; 1220 nM on Peregrin; 14 nM in data set [4]; 863 nM in data set [6]. The compound further yielded a solubility in data set [5] of 139 µg/mL (≈ 273 µM).

As for `Cc1cc2c(cc1N1C(=O)c3cccc4c(N5CCCCC5)ccc(c34)C1=O)n(C)c(=O)n2C`, the concentration for half-maximal inhibition (IC50) in data set [3] is 95 nM; against Peregrin it was 13300 nM; in data set [4], 7 nM; in data set [6], greater than 10000 nM. The solubility entry in data set [5] is “Insoluble”.

Consider `Cc1cc2c(cc1N1C(=O)c3cccc4cc(C#N)cc(c34)C1=O)n(C)c(=O)n2C`, for which the half-inhibitory concentration (IC50) in data set [1] was greater than 20000 nM; in data set [2] it was greater than 20000 nM; in data set [3] it was 248 nM; at Peregrin it was 2230 nM; in data set [4], 22 nM.

In the case of `CN1CCN(c2cc3c(cc2N2C(=O)c4cccc5cccc(c45)C2=O)n(C)c(=O)n3C)CC1`, the IC50 is greater than 20000 nM in data set [1]; greater than 20000 nM in data set [2]; 366 nM in data set [3]; 578 nM against Peregrin; 1500 nM in data set [4].

With `Cc1cc2c(cc1N1C(=O)c3cccc4c(Br)ccc(c34)C1=O)n(C)c(=O)n2C`, the 50% inhibitory concentration (IC50) in data set [1] was greater than 9500 nM; in data set [2] it was greater than 20000 nM; in data set [3], 51 nM; against Peregrin, 591 nM; in data set [4], 4 nM.

Take `Cc1cc2c(cc1N1C(=O)c3cccc4cc(N)cc(c34)C1=O)n(C)c(=O)n2C`: the IC50 is greater than 9950 nM in data set [1]; greater than 20000 nM in data set [2]; 63 nM in data set [3]; 5510 nM against Peregrin; 33 nM in data set [4].

With `Cc1cc2c(cc1N1C(=O)c3cccc4c(CCCCO)ccc(c34)C1=O)n(C)c(=O)n2C`, the IC50 in data set [1] is greater than 11900 nM; in data set [2], greater than 15000 nM; in data set [3], 70 nM; on Peregrin it was 2300 nM; in data set [4] it was 7 nM. Also, the solubility in data set [5] stood at 10 µg/mL (≈ 22.5 µM).
